Measured values as given in patent publication US20120178915A1, “PYRIMIDINE DERIVATIVES AND ANALOGS, PREPARATION METHOD AND USE THEREOF” (priority 2009, published 2012).
≈ marks a conversion by molar mass, not a printed value. Where two headings read alike, the source gives them in different places.

Legend:
Assay type in all cases: cell-based
Bacillus cereus 246 = assay: microbe, parasite or virus in culture; conditions: 37° C., 24 h, read-out: Minimum Inhibitory Concentration, MIC
[1] = test system: Enterococcus faecalis 29212; assay: microbe, parasite or virus in culture; conditions: 37° C., 24 h, read-out: Minimum Inhibitory Concentration, MIC
[2] = test system: Corynebacterium diphtheriae; assay: microbe, parasite or virus in culture; conditions: 37° C., 24 h, read-out: Minimum Inhibitory Concentration, MIC
Bacillus anthracis 1 = assay: microbe, parasite or virus in culture; conditions: Bacillus anthracis, 1, 24 h, read-out: Minimum Inhibitory Concentration, MIC
[3] = test system: Streptococcus pneumoniae 6303 (PRSP); assay: microbe, parasite or virus in culture; conditions: 24 h, read-out: Minimum Inhibitory Concentration, MIC
[4] = test system: Staphylococcus aureus 704 (MRSA); assay: microbe, parasite or virus in culture; conditions: 24 h, read-out: Minimum Inhibitory Concentration, MIC
Oral candidiasis = assay: MIC broth microdilution; conditions: Microorganism 32, Oral candidiasis; 37° C., 24 h; read-out: Minimum Inhibitory Concentration, MIC
[5] = test system: Enterococcus faecalis 19433; assay: microbe, parasite or virus in culture; conditions: 37° C., 24 h, read-out: Minimum Inhibitory Concentration, MIC
Clostridium tetani = assay: microbe, parasite or virus in culture; conditions: 24 h
Clostridium perfringens = assay: microbe, parasite or virus in culture; conditions: 24 h, read-out: Minimum Inhibitory Concentration, MIC
[6] = test system: Streptococcus agalactiae B; assay: microbe, parasite or virus in culture; conditions: 37° C., 24 h, read-out: Minimum Inhibitory Concentration, MIC
[7] = test system: Staphylococcus aureus 43300 (MRSA); assay: microbe, parasite or virus in culture; conditions: 24 h, read-out: Minimum Inhibitory Concentration, MIC
[8] = test system: Enterococcus faecalis 583 (VRE); assay: microbe, parasite or virus in culture; conditions: 24 h, read-out: Minimum Inhibitory Concentration, MIC
Bacillus cereus 2 = assay: microbe, parasite or virus in culture; conditions: 37° C., 24 h, read-out: Minimum Inhibitory Concentration, MIC
[9] = test system: Enterococcus faecalis F2518 (VRE); assay: microbe, parasite or virus in culture; conditions: 24 h, read-out: Minimum Inhibitory Concentration, MIC
[10] = test system: Streptococcus pneumoniae M2; assay: microbe, parasite or virus in culture; conditions: 37° C., 24 h, read-out: Minimum Inhibitory Concentration, MIC
[11] = test system: Enterococcus faecalis 1513 (VRE); assay: microbe, parasite or virus in culture; conditions: 24 h, read-out: Minimum Inhibitory Concentration, MIC
[12] = test system: Enterococcus fecal F631 (VRE); assay: organism not typed; conditions: 24 h, read-out: Minimum Inhibitory Concentration, MIC
Gram-positive Bacteria = test system: Gram-positive Bacteria
Pyogenic Streptococcus = assay: microbe, parasite or virus in culture; conditions: 37° C., 24 h, read-out: Minimum Inhibitory Concentration, MIC
[13] = test system: Streptococcus bovis 10035; assay: microbe, parasite or virus in culture; conditions: Streptococcus equinus, 37° C., 24 h, read-out: Minimum Inhibitory Concentration, MIC
[14] = test system: Streptococcus pneumoniae 6301; assay: microbe, parasite or virus in culture; conditions: 37° C., 24 h, read-out: Minimum Inhibitory Concentration, MIC
[15] = test system: Streptococcus pneumoniae 10351; assay: microbe, parasite or virus in culture; conditions: 37° C., 24 h, read-out: Minimum Inhibitory Concentration, MIC
green Streptococcus 1009 = assay: microbe, parasite or virus in culture; conditions: 37° C., 24 h, read-out: Minimum Inhibitory Concentration, MIC
[16] = test system: Staphylococcus aureus 29231; assay: microbe, parasite or virus in culture; conditions: 37° C., 24 h, read-out: Minimum Inhibitory Concentration, MIC
Streptococcus 10342 = assay: MIC broth microdilution; conditions: 37° C., 24 h, read-out: Minimum Inhibitory Concentration, MIC
[17] = test system: Streptococcus pneumoniae 62; assay: microbe, parasite or virus in culture; conditions: 37° C., 24 h, read-out: Minimum Inhibitory Concentration, MIC
Bacillus subtilis 168 = assay: microbe, parasite or virus in culture; conditions: 37° C., 24 h, read-out: Minimum Inhibitory Concentration, MIC
MIC broth microdilution = conditions: Microorganism 33, Dermatophytosis; 37° C., 24 h; read-out: Minimum Inhibitory Concentration, MIC
[18] = test system: Staphylococcus aureus 703 (MRSA); assay: microbe, parasite or virus in culture; conditions: 24 h, read-out: Minimum Inhibitory Concentration, MIC
Bacillus subtilis 82 = assay: microbe, parasite or virus in culture; conditions: 37° C., 24 h, read-out: Minimum Inhibitory Concentration, MIC
[19] = test system: Staphylococcus aureus 705 (MRSA); assay: microbe, parasite or virus in culture; conditions: 24 h, read-out: Minimum Inhibitory Concentration, MIC
[20] = test system: Enterococcus faecalis 51299; assay: microbe, parasite or virus in culture; conditions: Enterococcus faecalis, 51299, 24 h, read-out: Minimum Inhibitory Concentration, MIC
[21] = read-out: Minimum Inhibitory Concentration, MIC, Microorganism 29, Clostridium tetani, 37° C.
[22] = read-out: Minimum Inhibitory Concentration, MIC, Microorganism 30, Clostridium tetani (second line of that name), 37° C.
[23] = Enterococcus faecalis (VRE), Staphylococcus aureus (MRSA), Streptococcus pneumoniae 6303 (PRSP), Bacillus cereus, Bacillus subtilis, Enterococcus faecalis, Staphylococcus aureus, Streptococcus pneumoniae, Streptococcus agalactiae B and streptococci 4
[24] = the majority of Bacillus cereus, Bacillus subtilis and Enterococcus faecalis

Row | Structure (SMILES) | MIC (Bacillus cereus 246) [µM] | MIC [1] [µM] | MIC [2] [µM] | MIC (Bacillus anthracis 1) [µM] | MIC [3] [µM] | MIC [4] [µM] | MIC (Oral candidiasis) [µM] | MIC [5] [µM] | MIC (Clostridium tetani; [21]) [µM] | MIC (Clostridium tetani; [22]) [µM] | MIC (Clostridium perfringens) [µM] | MIC [6] [µM] | MIC [7] [µM] | MIC [8] [µM] | MIC (Bacillus cereus 2) [µM] | MIC [9] [µM] | MIC [10] [µM] | MIC [11] [µM] | MIC [12] [µM] | MIC (Pyogenic Streptococcus) [µM] | further results
1 | Cc1nn2c(=O)cc(-c3ccc(C#N)cc3)[nH]c2c1-c1ccc(Cl)cc1Cl [Compound 10] | 1.32 (≈ 0.522 µg/mL) | 1.25 (≈ 0.494 µg/mL) | 70.3 (≈ 27.8 µg/mL) | 35.6 (≈ 14.1 µg/mL) | 0.04 (≈ 0.0158 µg/mL) | 0.23 (≈ 0.0909 µg/mL) | 99.2 (≈ 39.2 µg/mL) | 0.02 (≈ 0.0079 µg/mL) | 60.3 (≈ 23.8 µg/mL) | 20.3 (≈ 8.02 µg/mL) | 25.1 (≈ 9.92 µg/mL) | 5 (≈ 1.98 µg/mL) | 1.23 (≈ 0.486 µg/mL) | 0.99 (≈ 0.391 µg/mL) | 0.31 (≈ 0.123 µg/mL) | 0.31 (≈ 0.123 µg/mL) | 0.31 (≈ 0.123 µg/mL) | 0.61 (≈ 0.241 µg/mL) | 0.56 (≈ 0.221 µg/mL) | 2.5 (≈ 0.988 µg/mL) | inhibition of growth (conclusion from MICs) (Gram-positive Bacteria; [23]): significantly inhibited the growth; MIC [13]: 1.05 µM (≈ 0.415 µg/mL); MIC [14]: 0.16 µM (≈ 0.0632 µg/mL); MIC [15]: 1.35 µM (≈ 0.534 µg/mL); MIC (green Streptococcus 1009): 1.45 µM (≈ 0.573 µg/mL); MIC [16]: 0.63 µM (≈ 0.249 µg/mL); MIC (Streptococcus 10342): 1.15 µM (≈ 0.455 µg/mL); MIC [17]: 0.25 µM (≈ 0.0988 µg/mL); MIC (Bacillus subtilis 168): 0.63 µM (≈ 0.249 µg/mL); MIC (MIC broth microdilution): 55.9 µM (≈ 22.1 µg/mL); MIC [18]: 0.34 µM (≈ 0.134 µg/mL); MIC (Bacillus subtilis 82): 0.63 µM (≈ 0.249 µg/mL); MIC [19]: 0.31 µM (≈ 0.123 µg/mL); MIC [20]: 2.3 µM (≈ 0.909 µg/mL)
2 | O=C1C(c2ccccc2)C(O)=Nc2cc(-c3ccc(C(F)(F)F)cc3)nn21 (stereo not shown) [Compound 42] | 0.23 (≈ 0.0854 µg/mL) | 20.5 (≈ 7.61 µg/mL) | 32 (≈ 11.9 µg/mL) | 32.5 (≈ 12.1 µg/mL) | 203 (≈ 75.4 µg/mL) | 230 (≈ 85.5 µg/mL) | 21.3 (≈ 7.91 µg/mL) | 18.2 (≈ 6.76 µg/mL) | 30.2 (≈ 11.2 µg/mL) | 80.3 (≈ 29.8 µg/mL) | 2.01 (≈ 0.746 µg/mL) | 0.55 (≈ 0.204 µg/mL) | 150 (≈ 55.8 µg/mL) | 30.3 (≈ 11.3 µg/mL) | 0.25 (≈ 0.0928 µg/mL) | 18.2 (≈ 6.76 µg/mL) | 0.02 (≈ 0.00743 µg/mL) | 20.1 (≈ 7.46 µg/mL) | 21.2 (≈ 7.87 µg/mL) | 1.23 (≈ 0.457 µg/mL) | inhibition of growth (conclusion from MICs) (Gram-positive Bacteria; [24]): significantly inhibited the growth; MIC [13]: 1.28 µM (≈ 0.475 µg/mL); MIC [14]: 0.23 µM (≈ 0.0854 µg/mL); MIC [15]: 1.25 µM (≈ 0.464 µg/mL); MIC (green Streptococcus 1009): 1.25 µM (≈ 0.464 µg/mL); MIC [16]: 0.28 µM (≈ 0.104 µg/mL); MIC (Streptococcus 10342): 15.5 µM (≈ 5.76 µg/mL); MIC [17]: 0.25 µM (≈ 0.0928 µg/mL); MIC (Bacillus subtilis 168): 1.23 µM (≈ 0.457 µg/mL); MIC (MIC broth microdilution): 52.1 µM (≈ 19.3 µg/mL); MIC [18]: 172 µM (≈ 63.9 µg/mL); MIC (Bacillus subtilis 82): 0.02 µM (≈ 0.00743 µg/mL); MIC [19]: 180 µM (≈ 66.9 µg/mL); MIC [20]: 21.2 µM (≈ 7.87 µg/mL)
3 | Cc1nn2c(=O)cc(-c3ccc(C(F)(F)F)nc3)[nH]c2c1-c1ccc(Cl)cc1Cl [Compound 8] | 2.6 (≈ 1.14 µg/mL) | 0.66 (≈ 0.29 µg/mL) | 30.3 (≈ 13.3 µg/mL) | 56.8 (≈ 24.9 µg/mL) | 1.23 (≈ 0.54 µg/mL) | 10.3 (≈ 4.52 µg/mL) | 20.3 (≈ 8.92 µg/mL) | 11.5 (≈ 5.05 µg/mL) | 70.3 (≈ 30.9 µg/mL) | 50.6 (≈ 22.2 µg/mL) | 61.3 (≈ 26.9 µg/mL) | 0.56 (≈ 0.246 µg/mL) | 0.6 (≈ 0.264 µg/mL) | 0.31 (≈ 0.136 µg/mL) | 0.65 (≈ 0.285 µg/mL) | 0.32 (≈ 0.141 µg/mL) | 1.25 (≈ 0.549 µg/mL) | 0.16 (≈ 0.0703 µg/mL) | 0.04 (≈ 0.0176 µg/mL) | 0.63 (≈ 0.277 µg/mL) | inhibition of growth (conclusion from MICs) (Gram-positive Bacteria; [23]): significantly inhibited the growth; MIC [13]: 10.5 µM (≈ 4.61 µg/mL); MIC [14]: 2.5 µM (≈ 1.1 µg/mL); MIC [15]: 0.04 µM (≈ 0.0176 µg/mL); MIC (green Streptococcus 1009): 0.3 µM (≈ 0.132 µg/mL); MIC [16]: 10.3 µM (≈ 4.52 µg/mL); MIC (Streptococcus 10342): 0.3 µM (≈ 0.132 µg/mL); MIC [17]: 0.63 µM (≈ 0.277 µg/mL); MIC (Bacillus subtilis 168): 0.66 µM (≈ 0.29 µg/mL); MIC (MIC broth microdilution): 31.8 µM (≈ 14 µg/mL); MIC [18]: 1.23 µM (≈ 0.54 µg/mL); MIC (Bacillus subtilis 82): 1.35 µM (≈ 0.593 µg/mL); MIC [19]: 50.6 µM (≈ 22.2 µg/mL); MIC [20]: 0.36 µM (≈ 0.158 µg/mL)
4 | O=c1[nH]c(-c2ccc(C(F)(F)F)cc2)nc2cc(Cl)ccc12 [Compound 14] | 30.2 (≈ 9.79 µg/mL) | 15 (≈ 4.87 µg/mL) | 135 (≈ 43.9 µg/mL) | 122 (≈ 39.8 µg/mL) | 250 (≈ 81.2 µg/mL) | 160 (≈ 52 µg/mL) | 133 (≈ 43.2 µg/mL) | 13.5 (≈ 4.38 µg/mL) | 160 (≈ 52 µg/mL) | 120 (≈ 39.1 µg/mL) | 125 (≈ 40.6 µg/mL) | 225 (≈ 73.1 µg/mL) | 120 (≈ 39.1 µg/mL) | 120 (≈ 39.1 µg/mL) | 20.2 (≈ 6.57 µg/mL) | 122 (≈ 39.7 µg/mL) | 120 (≈ 39 µg/mL) | 130 (≈ 42.3 µg/mL) | 221 (≈ 71.8 µg/mL) | 132 (≈ 43 µg/mL) | inhibition of growth (conclusion from MICs) (Gram-positive Bacteria; [24]): significantly inhibited the growth; MIC [13]: 100 µM (≈ 32.6 µg/mL); MIC [14]: 141 µM (≈ 45.7 µg/mL); MIC [15]: 104 µM (≈ 33.6 µg/mL); MIC (green Streptococcus 1009): 126 µM (≈ 40.7 µg/mL); MIC [16]: 6.31 µM (≈ 2.05 µg/mL); MIC (Streptococcus 10342): 170 µM (≈ 55.4 µg/mL); MIC [17]: 100 µM (≈ 32.5 µg/mL); MIC (Bacillus subtilis 168): 12.5 µM (≈ 4.06 µg/mL); MIC (MIC broth microdilution): 121 µM (≈ 39.4 µg/mL); MIC [18]: 125 µM (≈ 40.6 µg/mL); MIC (Bacillus subtilis 82): 10.3 µM (≈ 3.35 µg/mL); MIC [19]: 210 µM (≈ 68.3 µg/mL); MIC [20]: 21.5 µM (≈ 6.98 µg/mL)
